Source: BigSolDB 2.1

**Q.** What does the source list for `CC(=O)Oc1ccccc1C(=O)O`?
**A.** solubility (mole fraction) (in acetone, 283.15 K): 0.0629; solubility (mole fraction) (in acetone, 288.15 K): 0.0733; solubility (mole fraction) (in acetone, 293.15 K): 0.0821; solubility (mole fraction) (in acetone, 298.15 K): 0.0931; solubility (mole fraction) (in acetone, 303.15 K): 0.105; solubility (mole fraction) (in acetone, 308.15 K): 0.113; solubility (mole fraction) (in acetone, 313.15 K): 0.126; solubility (mole fraction) (in acetone, 318.15 K): 0.138; solubility (mole fraction) (in acetone, 323.15 K): 0.157; solubility (mole fraction) (in ethanol, 283.15 K): 0.0334; solubility (mole fraction) (in ethanol, 288.15 K): 0.0426; solubility (mole fraction) (in ethanol, 293.15 K): 0.0515; solubility (mole fraction) (in ethanol, 298.15 K): 0.0614; solubility (mole fraction) (in ethanol, 303.15 K): 0.074; solubility (mole fraction) (in ethanol, 308.15 K): 0.0876; solubility (mole fraction) (in ethanol, 313.15 K): 0.102; solubility (mole fraction) (in ethanol, 318.15 K): 0.122; solubility (mole fraction) (in ethanol, 323.15 K): 0.141; solubility (mole fraction) (in ethyl acetate, 283.15 K): 0.0267; solubility (mole fraction) (in ethyl acetate, 288.15 K): 0.0314; solubility (mole fraction) (in ethyl acetate, 293.15 K): 0.0361; solubility (mole fraction) (in ethyl acetate, 298.15 K): 0.0413; solubility (mole fraction) (in ethyl acetate, 303.15 K): 0.0471; solubility (mole fraction) (in ethyl acetate, 308.15 K): 0.0543; solubility (mole fraction) (in ethyl acetate, 313.15 K): 0.0651; solubility (mole fraction) (in ethyl acetate, 318.15 K): 0.0738; solubility (mole fraction) (in ethyl acetate, 323.15 K): 0.0849; solubility (mole fraction) (in n-propanol, 283.15 K): 0.0254; solubility (mole fraction) (in n-propanol, 288.15 K): 0.0316; solubility (mole fraction) (in n-propanol, 293.15 K): 0.037; solubility (mole fraction) (in n-propanol, 298.15 K): 0.0473; solubility (mole fraction) (in n-propanol, 303.15 K): 0.0576; solubility (mole fraction) (in n-propanol, 308.15 K): 0.0687; solubility (mole fraction) (in n-propanol, 313.15 K): 0.0816; solubility (mole fraction) (in n-propanol, 318.15 K): 0.0971; solubility (mole fraction) (in n-propanol, 323.15 K): 0.118
